Experimental data taken from publication PMC6792352, “Limited Chemical Structural Diversity Found to Modulate Thyroid Hormone Receptor in the Tox21 Chemical Library” (Environmental Health Perspectives, 2019).
Counter-ions that a name gives are not always drawn.

Test: in vitro
Details: rat, gh3-tre-luc cells, AC50 (uM) modified / 1000

Compound	CC50 at 24 h [µM]
CCN(CC)CCOc1ccccc1C(=O)CCc1ccccc1 [Etafenone]	18.1
Cc1cc([N+](=O)[O-])ccc1N [2-Methyl-4-nitroaniline]	> 90
OCC1(CO)COCOC1 [1,3-Dioxane-5,5-diyldimethanol]	> 90
O=CC1CC=CCC1 (centres unmarked) [3-Cyclohexene-1-carboxaldehyde]	> 90
CCCCC#N [Valeronitrile]	> 90
O=[N+]([O-])c1cc(C2CCCCC2)c(O)c([N+](=O)[O-])c1 [Dinex]	8.98
O=C(OCc1ccccc1)C(=O)OCc1ccccc1 [Dibenzyl oxalate]	> 90
CCCCCC(=O)O [Hexanoic acid]	> 90
CC(=O)N[C@@H]([C@@H](O)[C@H](O)[C@H](O)CO)[C@@H](O)CC(=O)C(=O)O [Aceneuramic acid]	> 50
Nc1nc(N)nc(-c2ccccc2)n1 [6-Phenyl-1,3,5-triazine-2,4-diamine]	> 90
CCCCCCOC(=O)c1ccccc1C(=O)OCCCCCC [Dihexyl phthalate]	> 90
CC(=O)[C@]1(O)Cc2c(O)c3c(c(O)c2[C@@H](O[C@H]2C[C@H](N)[C@H](O)[C@H](C)O2)C1)C(=O)c1ccccc1C3=O [Idarubicin hydrochloride]	0.162
CC(C)(C)[C@H](O)[C@H](Cc1ccc(Cl)cc1)n1cncn1 (racemic) [Paclobutrazol]	> 90
Nc1nc(O)c2ncn(COC(CO)CO)c2n1 [Ganciclovir]	> 20
O=c1oc2ccccc2c(O)c1Cc1c(O)c2ccccc2oc1=O [Dicumarol]	> 20
O=C1NS(=O)(=O)c2ccccc21 [Sodium saccharin]	> 90
CC(C)NC[C@@H](O)COc1cccc2ccccc12 [Dexpropranolol]	27.7
O=C(O)c1ccccc1O [Sodium salicylate]	> 90
C/C=C/C=O [Crotonaldehyde]	> 90
CC/C=C\CCOC(C)=O [(3Z)-3-Hexenyl acetate]	> 90
S=C=NCCc1ccccc1 [Phenethyl isothiocyanate]	79.7

Compound	CC50 at 24 h [µM]
Brc1ccccc1-c1ccccc1 [2-Bromobiphenyl]	> 90
COCCOc1cc2cc(C(=O)NC3CCN(C(C)C)CC3)n(CC(=O)Nc3ccc(Cl)cn3)c2cn1 [SAR377142]	71.7
Nc1ccc(N)c(Cl)c1 [2-Chloro-1,4-diaminobenzene sulfate]	> 90
CCC(C(=O)NC(N)=O)c1ccccc1 (centres unmarked) [Ethylphenylacetylurea]	> 90
OCc1cc(C(O)CNCCCCCCOCCCCc2ccccc2)ccc1O (centres unmarked) [Salmeterol]	10.6
C1COC1 [1,3-Propylene oxide]	> 90
COS(=O)(=O)C(F)(F)F [Methyl trifluoromethanesulfonate]	> 100
O=[N+]([O-])c1cccc2cccnc12 [8-Nitroquinoline]	> 90
CCCCCCCC/C=C\CCCCCCCC(N)=O [(9Z)-Octadec-9-enamide]	> 90
O=C1CCCCCCCCCCC(=O)OCCO1 [1,4-Dioxacyclohexadecane-5,16-dione]	> 90
CCOC(=O)C(SP(=S)(OC)OC)c1ccccc1 (centres unmarked) [Phenthoate]	> 90
O=C1N=C2SCCN2C(=O)C1Cc1ccc(Cl)cc1 (centres unmarked) [Nuclomedone]	> 50
CCCc1ccc(O)cc1 [4-Propylphenol]	> 90
C[n+]1ccccc1/C=N/O [Pralidoxime chloride]	> 20
CCCCCCCCCCCCCCCC(=O)OC[C@@H](NC(=O)C(Cl)Cl)[C@H](O)c1ccc([N+](=O)[O-])cc1 [Chloramphenicol palmitate]	> 50
CC(C)CCCC(C)CCO (centres unmarked) [3,7-Dimethyloctan-1-ol]	> 90
CCc1c(C)[nH]c2c1C(=O)C(CN1CCOCC1)CC2 (centres unmarked) [Molindone hydrochloride]	> 20
CC(=O)Oc1ccc2c3c1O[C@H]1[C@@H](OC(C)=O)C=C[C@H]4[C@@H](C2)N(C)CC[C@@]341 [(-)-Heroin hydrochloride]	> 100
CCCCC(CC)COC(=O)c1ccccc1 (centres unmarked) [2-Ethylhexyl benzoate]	> 90
CCN(CC)CCOc1ccccc1OC [Guaiactamine]	> 50
NC[C@@H]1CC[C@@H](N)[C@@H](O[C@H]2[C@H](O)[C@@H](O[C@H]3O[C@H](CO)[C@@H](O)[C@H](N)[C@H]3O)[C@H](N)C[C@@H]2N)O1 [Dibekacin]	> 50

Compound	CC50 at 24 h [µM]
C[N+]1(CCF)[C@@H]2CC[C@H]1CC(OC(=O)C(O)(c1ccccc1)c1ccccc1)C2 (some centres unmarked) [Flutropium bromide]	> 50
CCCCCCCC/C=C\CCCCCCCCO [(9Z)-Octadec-9-en-1-ol]	> 90
O=C(O)c1cccc(C(F)(F)F)c1 [3-(Trifluoromethyl)benzoic acid]	> 90
CC1C(C)(C)C2=C(C(=O)CCC2)C1(C)C (centres unmarked) [Dihydro-1,1,2,3,3-pentamethyl-4(5H)-indanone]	> 90
NS(=O)(=O)c1cc(C2(O)NC(=O)c3ccccc32)ccc1Cl (centres unmarked) [Chlorthalidone]	> 20
O=C1C(=O)c2ncccc2-c2cccnc21 [Phanquinone]	1.78
CC(=O)C(C)C [3-Methyl-2-butanone]	> 100
NC(=O)c1cn(Cc2c(F)cccc2F)nn1 [Rufinamide]	> 50
CCN1CCN(c2cc(-c3ccc(F)cc3)c3c(n2)CCCCCC3)CC1 [Blonanserin]	20.1
CCN(CC)CC [Triethylamine]	> 100
CCCc1c(OCCCOc2ccc(OCC(=O)O)cc2)ccc(C(C)=O)c1O [4-[3-(4-Acetyl-3-hydroxy-2-propylphenoxy)propoxy]phenoxy-acetic acid]	> 90
CCC/C=C/CO [(E)-2-Hexen-1-ol]	> 90
CC(C)OC(=O)COc1ccc(Cl)cc1Cl [2,4-D isopropyl ester]	> 90
O=C(OCCCCCCOC(=O)c1ccccc1)c1ccccc1 [Hexane-1,6-diyl dibenzoate]	> 90
CCCCCCCCCCCCCCCCC(C(=O)O)C(O)(CC(=O)O)C(=O)O (centres unmarked) [Agaric acid]	29.5
CCc1c2c(nc3ccc(OC(=O)N4CCC(N5CCCCC5)CC4)cc13)-c1cc3c(c(=O)n1C2)COC(=O)[C@]3(O)CC [Irinotecan hydrochloride]	> 50
CCCCCCCCCCCCCOS(=O)(=O)O [Sodium tridecyl sulfate]	> 90
COC(=O)Nc1ccc(Cl)c(Cl)c1 [Swep]	> 90
CN(C)C(=O)Nc1ccc(Cl)cc1 [Monuron]	> 90
O=C(CBr)c1ccc(O)cc1 [2-Bromo-4-hydroxyacetophenone]	> 90
O=S(=O)(O)c1cc(O)c(O)c(S(=O)(=O)O)c1 [Tiron]	> 90

Compound	CC50 at 24 h [µM]
CC(C)(C)Cl [t-Butylchloride]	> 100
Cc1c(Cn2ccnc2)c2ccccc2n1CCC(=O)O [Dazmegrel]	> 50
O=[N+]([O-])c1ccc(O)cc1C(F)(F)F [3-Trifluoromethyl-4-nitrophenol]	41.4
CN(C)Cc1ccccc1 [N,N-Dimethylbenzylamine]	> 50
Cl[Si](Cl)(c1ccccc1)c1ccccc1 [Dichlorodiphenylsilane]	> 90
SCCc1cnccn1 [Pyrazineethanethiol]	> 90
COc1ccc(-c2ccccc2)cc1NNC(=O)OC(C)C [Bifenazate]	87.4
CCCCCCCCCCC [Undecane]	> 90
C=O [Formalin]	> 100
c1ccc(OCc2ccc(CCCN3CCOCC3)cc2)cc1 [Fomocaine]	16.1
Cc1c(C(=O)O)cccc1[N+](=O)[O-] [2-Methyl-3-nitrobenzoic acid]	> 90
CC(c1ccc(O)cc1)(c1ccc(O)cc1)c1ccc(O)cc1 [4,4',4"-Ethane-1,1,1-triyltriphenol]	55.5
Nc1ccn([C@H]2CC[C@@H](CO)O2)c(=O)n1 [2',3'-Dideoxycytidine]	> 50
O=C(O)[C@@H]1CSCN1 [L-Thioproline]	> 50
Nc1cc(Cl)ccc1O [2-Amino-4-chlorophenol]	30.7
O=S(=O)(NS(=O)(=O)C(F)(F)F)C(F)(F)F [Triethylsulfonium bis(trifluoromethanesulfonyl)imide]	> 90
CC(C)(S)C(=O)N[C@@H](CS)C(=O)O [Bucillamine]	> 50
O=C(Nc1ccc(Br)cc1)c1cc(Br)c(Br)s1 [Tibrofan]	19.8

Same assay, conditions: rat, gh3-tre-luc cells, AC50 (uM) modified / 1000, Tox21_110001=Tox21_110815; viability, 1 nM T3 present, 24 h

Compound	CC50 at 24 h [µM]
COc1ccc2c(c1OC)C(=O)O[C@H]2[C@@H]1c2cc3c(cc2CCN1C)OCO3 [(1S,9R)-beta-Hydrastine]	> 50

Same assay, conditions: rat, gh3-tre-luc cells, AC50 (uM) modified / 1000, Tox21_110001=Tox21_113080; viability, 1 nM T3 present, 24 h

Compound	CC50 at 24 h [µM]
COP(=S)(OC)Oc1ccc(S(N)(=O)=O)cc1 [Cythioate]	> 50

Same assay, conditions: rat, gh3-tre-luc cells, AC50 (uM) modified / 1000, Tox21_110001=Tox21_201145; viability, 1 nM T3 present, 24 h

Compound	CC50 at 24 h [µM]
CC(C)OC(=O)Cc1ccccc1 [Isopropyl phenylacetate]	> 90

Same assay, conditions: rat, gh3-tre-luc cells, AC50 (uM) modified / 1000, Tox21_110001=Tox21_201236; viability, 1 nM T3 present, 24 h

Compound	CC50 at 24 h [µM]
CN1CSC(=S)N(C)C1 [Dazomet]	5.54

Same assay, conditions: rat, gh3-tre-luc cells, AC50 (uM) modified / 1000, Tox21_110001=Tox21_201650; viability, 1 nM T3 present, 24 h

Compound	CC50 at 24 h [µM]
Nc1cccnc1 [3-Pyridinamine]	> 90

Same assay, conditions: rat, gh3-tre-luc cells, AC50 (uM) modified / 1000, Tox21_110001=Tox21_202941; viability, 1 nM T3 present, 24 h

Compound	CC50 at 24 h [µM]
O=C(CBr)c1ccccc1 [2-Bromoacetophenone]	> 90

Same assay, conditions: rat, gh3-tre-luc cells, AC50 (uM) modified / 1000, Tox21_110001=Tox21_300990; viability, 1 nM T3 present, 24 h

Compound	CC50 at 24 h [µM]
CN1CSC(=S)N(C)C1 [Dazomet]	34.4

Same assay, conditions: rat, gh3-tre-luc cells, AC50 (uM) modified / 1000, Tox21_110001=Tox21_301297; viability, 1 nM T3 present, 24 h

Compound	CC50 at 24 h [µM]
NC(=O)CF [2-Fluoroacetamide]	> 90
